Data: patent US7465401B2, “Treatment of chloraminated water” (Water Corporation, priority 2003, dated 2008)

Experiments:
[1] = tested on: ammonia oxidising bacteria, cultured from a chloraminated system; assay: Ammonia level over days in a dechlorinated chloraminated water sample dosed with ammonia and ammonia oxidising bacteria; type: cell-based
Procedure: After the elimination of chlorine, a chloraminated water bulk sample was dosed with excess ammonia to achieve 1.50 mg/L ammonia-N concentration. The bulk sample was dosed with ammonia oxidising bacteria, cultured from a chloraminated system.
The bulk sample was then subsampled into 9 separate portions. These portions were dosed as follows: • 1. no dosage • 2. 0.1 mg/L copper • 3. 0.2 mg/L copper • 4. 0.3 mg/L copper • 5. 0.2 mg/L zinc • 6. 0.4 mg/L zinc • 7. 0.2 mg/L copper, 0.1 mg/L zinc • 8. 0.1 mg/L copper, 0.2 mg/L zinc • 9. 0.2 mg/L copper, 0.4 mg/L zinc.
The samples were measured over subsequent days to determine the ammonia levels.

nitrification = assay: Field trial: covered reservoir dosed with copper sulphate; ammonia, nitrite and nitrate measured at inlet and outlet; conditions: copper about 0.25 mg/L for six weeks
Procedure: The levels of ammonia, nitrite and nitrate were measured both at reservoir inlet and outlet.

[2] = 0.1 mg/L copper, 1.50 mg/L ammonia-N at start
[3] = 0.2 mg/L copper, 1.50 mg/L ammonia-N at start
[4] = 0.3 mg/L copper, 1.50 mg/L ammonia-N at start

Row | SMILES | time after which the ammonia level begins to fall [1, 2] | time to fall to the base ammonia level of about 0.1 mg/L [1, 2] | time the ammonia level was maintained [1, 3] | time to reach the base ammonia level [1, 3] | time the ammonia level was maintained [1, 4] | time to reach the base ammonia level [1, 4] | microbiological activity following dosing (nitrification) | nitrate and nitrite levels at reservoir outlet (nitrification; detention period 3.5 days) | percentage of ammonia surviving from inlet to outlet (nitrification; detention period 3.5 days) | effect of zinc on the efficacy of the copper dose ([1]; zinc 0.1-0.4 mg/L in conjunction with copper 0.1-0.2 mg/L)
1 | [Cu] [copper] | about seven | ~12 days | about 15 days | 19 days | 34 days | 40 days | significant reduction | substantial reduction | substantial increase | –
2 | [Zn] [zinc] | – | – | – | – | – | – | – | – | – | decrease the efficacy of the copper dose
